# Reference: ChEMBL document CHEMBL1275577, “Study of the in vitro activities of rifaximin and comparator agents against 536 anaerobic intestinal bacteria from the perspective of potential utility in pathology involving bowel flora” (Antimicrob Agents Chemother, 2009)
# How the values were obtained:
# Type in all cases: functional
# [1] = system: Bifidobacterium bifidum; test: Antimicrobial activity against Bifidobacterium bifidum by Wadsworth agar dilution method
# [2] = system: Eubacterium rectale; test: Antimicrobial activity against Eubacterium rectale by Wadsworth agar dilution method; conditions: Agathobacter rectalis
# [3] = system: Clostridium acetobutylicum; test: Antimicrobial activity against Clostridium acetobutylicum by Wadsworth agar dilution method
# [4] = system: Clostridium sporogenes; test: Antimicrobial activity against Clostridium sporogenes by Wadsworth agar dilution method
# [5] = system: Prevotella disiens; test: Antimicrobial activity against Prevotella disiens by Wadsworth agar dilution method
# [6] = system: Catenibacterium mitsuokai; test: Antimicrobial activity against Catenibacterium mitsuokai by Wadsworth agar dilution method
# [7] = system: Bifidobacterium pseudolongum; test: Antimicrobial activity against Bifidobacterium pseudolongum by Wadsworth agar dilution method
# [8] = system: Lactobacillus acidophilus; test: Antimicrobial activity against Lactobacillus acidophilus by Wadsworth agar dilution method
# [9] = system: Clostridium sp.; test: Antimicrobial activity against Clostridium sp. by Wadsworth agar dilution method
# [10] = system: Bacteroides caccae; test: Antimicrobial activity against Bacteroides caccae by Wadsworth agar dilution method
# [11] = system: Fusobacterium mortiferum; test: Antimicrobial activity against Fusobacterium mortiferum by Wadsworth agar dilution method in presence of beta-lactamase inhibitor Sulbactam
# [12] = system: Eubacterium saburreum; test: Antimicrobial activity against Eubacterium saburreum by Wadsworth agar dilution method; conditions: Lachnoanaerobaculum saburreum
# [13] = system: [Clostridium] innocuum; test: Antimicrobial activity against Clostridium innocuum by Wadsworth agar dilution method
# [14] = system: Clostridium perfringens; test: Antimicrobial activity against Clostridium perfringens by Wadsworth agar dilution method
# [15] = system: Propionibacterium propionicum; test: Antimicrobial activity against Propionibacterium propionicum by Wadsworth agar dilution method; conditions: Arachnia propionica
# [16] = system: Anaerococcus prevotii; test: Antimicrobial activity against Anaerococcus prevotii by Wadsworth agar dilution method
# [17] = system: Clostridium glycolicum; test: Antimicrobial activity against Clostridium glycolicum by Wadsworth agar dilution method; conditions: Terrisporobacter glycolicus
# [18] = system: Schaalia odontolytica; test: Antimicrobial activity against Actinomyces odontolyticus by Wadsworth agar dilution method
# [19] = system: Porphyromonas uenonis; test: Antimicrobial activity against Porphyromonas uenonis by Wadsworth agar dilution method
# [20] = system: Peptoniphilus harei; test: Antimicrobial activity against Peptoniphilus harei by Wadsworth agar dilution method
# [21] = system: Prevotella melaninogenica; test: Antimicrobial activity against Prevotella melaninogenica by Wadsworth agar dilution method
# [22] = system: Clostridium aminobutyricum; test: Antimicrobial activity against Clostridium aminobutyricum by Wadsworth agar dilution method
# [23] = system: Bacteroides thetaiotaomicron; test: Antimicrobial activity against Bacteroides thetaiotaomicron by Wadsworth agar dilution method
# [24] = system: Peptostreptococcus anaerobius; test: Antimicrobial activity against Peptostreptococcus anaerobius by Wadsworth agar dilution method
# [25] = system: Lactiplantibacillus plantarum; test: Antimicrobial activity against Lactobacillus plantarum by Wadsworth agar dilution method
# [26] = system: Clostridium spiroforme; test: Antimicrobial activity against Clostridium spiroforme by Wadsworth agar dilution method; conditions: Thomasclavelia spiroformis
# [27] = system: Atopobium minutum; test: Antimicrobial activity against Atopobium minutum by Wadsworth agar dilution method
# [28] = system: Actinomyces viscosus; test: Antimicrobial activity against Actinomyces viscosus by Wadsworth agar dilution method
# [29] = system: Ruminococcus torques; test: Antimicrobial activity against Ruminococcus torques by Wadsworth agar dilution method; conditions: Mediterraneibacter torques
# [30] = Antimicrobial activity against Bifidobacterium pseudocatenulatum by Wadsworth agar dilution method
# [31] = system: Eubacterium callanderi; test: Antimicrobial activity against Eubacterium callanderi by Wadsworth agar dilution method
# [32] = system: Clostridioides difficile; test: Antimicrobial activity against Clostridium difficile by Wadsworth agar dilution method
# [33] = system: Bilophila wadsworthia; test: Antimicrobial activity against Bilophila wadsworthia by Wadsworth agar dilution method in presence of 1% pyruvic acid
# [34] = system: Clostridium cocleatum; test: Antimicrobial activity against Clostridium cocleatum by Wadsworth agar dilution method; conditions: Thomasclavelia cocleata
# [35] = system: Limosilactobacillus fermentum; test: Antimicrobial activity against Lactobacillus fermentum by Wadsworth agar dilution method
# [36] = system: Lactobacillus jensenii; test: Antimicrobial activity against Lactobacillus jensenii by Wadsworth agar dilution method
# [37] = system: Blautia producta; test: Antimicrobial activity against Ruminococcus productus by Wadsworth agar dilution method
# [38] = system: Propionibacterium avidum; test: Antimicrobial activity against Propionibacterium avidum by Wadsworth agar dilution method; conditions: Cutibacterium avidum
# [39] = system: Porphyromonas asaccharolytica; test: Antimicrobial activity against Porphyromonas asaccharolyticus by Wadsworth agar dilution method
# [40] = system: Eubacterium biforme; test: Antimicrobial activity against Eubacterium biforme by Wadsworth agar dilution method; conditions: Holdemanella biformis
# [41] = system: Desulfovibrio sp.; test: Antimicrobial activity against Desulfovibrio sp. by Wadsworth agar dilution method
# [42] = system: Bacteroides ovatus; test: Antimicrobial activity against Bacteroides ovatus by Wadsworth agar dilution method
# [43] = system: Clostridium beijerinckii; test: Antimicrobial activity against Clostridium beijerinckii by Wadsworth agar dilution method
# [44] = system: Eggerthella lenta; test: Antimicrobial activity against Eggerthella lenta by Wadsworth agar dilution method
# [45] = system: Fusobacterium necrophorum; test: Antimicrobial activity against Fusobacterium necrophorum by Wadsworth agar dilution method
# [46] = system: Porphyromonas somerae; test: Antimicrobial activity against Porphyromonas somerae by Wadsworth agar dilution method
# [47] = system: Clostridium septicum; test: Antimicrobial activity against Clostridium septicum by Wadsworth agar dilution method
compound,measurement,setting,value
CN[C@H](CC(C)C)C(=O)N[C@H]1C(=O)N[C@@H](CC(N)=O)C(=O)N[C@H]2C(=O)N[C@H]3C(=O)N[C@H](C(=O)N[C@H](C(=O)O)c4cc(O)cc(O)c4-c4cc3ccc4O)[C@H](O)c3ccc(c(Cl)c3)Oc3cc2cc(c3O[C@@H]2O[C@H](CO)[C@@H](O)[C@H](O)[C@H]2O[C@H]2C[C@](C)(N)[C@H](O)[C@H](C)O2)Oc2ccc(cc2Cl)[C@H]1O [VANCOMYCIN],MIC50,[1],1 µg/mL
same,MIC90,[1],64 µg/mL
same,MIC50,[2],1 µg/mL
same,MIC90,[2],64 µg/mL
same,MIC50,[3],1 µg/mL
same,MIC90,[3],4 µg/mL
same,MIC50,[4],1 µg/mL
same,MIC90,[4],4 µg/mL
same,MIC50,[5],128 µg/mL
same,MIC90,[5],256 µg/mL
same,MIC50,[6],1 µg/mL
same,MIC90,[6],64 µg/mL
same,MIC50,[7],1 µg/mL
same,MIC90,[7],64 µg/mL
same,MIC50,[8],1 µg/mL
same,MIC90,[8],64 µg/mL
same,MIC50,[9],1 µg/mL
same,MIC90,[9],4 µg/mL
same,MIC50,[10],32 µg/mL
same,MIC90,[10],64 µg/mL
same,MIC50,[11],256 µg/mL
same,MIC90,[11],> 1020 µg/mL
same,MIC50,[12],1 µg/mL
same,MIC90,[12],64 µg/mL
same,MIC,[13],16 µg/mL
same,MIC50,[13],16 µg/mL
same,MIC90,[13],256 µg/mL
same,MIC50,[14],1 µg/mL
same,MIC90,[14],1 µg/mL
same,MIC50,[15],1 µg/mL
same,MIC90,[15],64 µg/mL
same,MIC50,[16],0.5 µg/mL
same,MIC90,[16],1 µg/mL
same,MIC50,[17],1 µg/mL
same,MIC90,[17],4 µg/mL
same,MIC50,[18],1 µg/mL
same,MIC90,[18],64 µg/mL
same,MIC50,[19],4 µg/mL
same,MIC90,[19],8 µg/mL
same,MIC50,[20],0.5 µg/mL
same,MIC90,[20],1 µg/mL
same,MIC50,[21],128 µg/mL
same,MIC90,[21],256 µg/mL
same,MIC50,[22],1 µg/mL
same,MIC90,[22],4 µg/mL
same,MIC50,[23],128 µg/mL
same,MIC90,[23],256 µg/mL
same,MIC50,[24],0.5 µg/mL
same,MIC90,[24],1 µg/mL
same,MIC50,[25],1 µg/mL
same,MIC90,[25],64 µg/mL
same,MIC50,[26],1 µg/mL
same,MIC90,[26],4 µg/mL
same,MIC50,[27],1 µg/mL
same,MIC90,[27],64 µg/mL
same,MIC50,[28],1 µg/mL
same,MIC90,[28],64 µg/mL
same,MIC50,[29],0.5 µg/mL
same,MIC90,[29],1 µg/mL
same,MIC50,[30],1 µg/mL
same,MIC90,[30],64 µg/mL
same,MIC50,[31],1 µg/mL
same,MIC90,[31],64 µg/mL
same,MIC,[32],1 µg/mL
same,MIC50,[32],1 µg/mL
same,MIC90,[32],2 µg/mL
same,MIC,[33],64 µg/mL
same,MIC50,[33],64 µg/mL
same,MIC90,[33],128 µg/mL
same,MIC50,[34],1 µg/mL
same,MIC90,[34],4 µg/mL
same,MIC50,[35],1 µg/mL
same,MIC90,[35],64 µg/mL
same,MIC50,[36],1 µg/mL
same,MIC90,[36],64 µg/mL
same,MIC50,[37],0.5 µg/mL
same,MIC90,[37],1 µg/mL
same,MIC50,[38],1 µg/mL
same,MIC90,[38],64 µg/mL
same,MIC50,[39],4 µg/mL
same,MIC90,[39],8 µg/mL
same,MIC50,[40],1 µg/mL
same,MIC90,[40],64 µg/mL
same,MIC50,[41],> 1020 µg/mL
same,MIC90,[41],> 1020 µg/mL
same,MIC50,[42],128 µg/mL
same,MIC90,[42],128 µg/mL
same,MIC50,[43],1 µg/mL
same,MIC90,[43],4 µg/mL
same,MIC50,[44],1 µg/mL
same,MIC90,[44],64 µg/mL
same,MIC50,[45],256 µg/mL
same,MIC90,[45],> 1020 µg/mL
same,MIC50,[46],4 µg/mL
same,MIC90,[46],8 µg/mL
same,MIC50,[47],1 µg/mL
same,MIC90,[47],4 µg/mL
